These results are taken from ChEMBL document CHEMBL5465560, “Selectivity Literature for EUbOPEN Chemogenomic Library” (2024).

Test [1] concerns the target G protein-coupled receptor kinase 5 (Homo sapiens, UniProt P34947). The test is described as follows: Selectivity interaction (ProQinase) EUB0000171b GRK5.
Test [2] deals with Ribosomal protein S6 kinase alpha-3 (Homo sapiens, UniProt P51812). The settings on record: at 10 µM.
Test [3] addresses T1, Dual specificity tyrosine-phosphorylation-regulated kinase 2 (Homo sapiens) (UniProt Q92630).
T1 sequence (whole entry): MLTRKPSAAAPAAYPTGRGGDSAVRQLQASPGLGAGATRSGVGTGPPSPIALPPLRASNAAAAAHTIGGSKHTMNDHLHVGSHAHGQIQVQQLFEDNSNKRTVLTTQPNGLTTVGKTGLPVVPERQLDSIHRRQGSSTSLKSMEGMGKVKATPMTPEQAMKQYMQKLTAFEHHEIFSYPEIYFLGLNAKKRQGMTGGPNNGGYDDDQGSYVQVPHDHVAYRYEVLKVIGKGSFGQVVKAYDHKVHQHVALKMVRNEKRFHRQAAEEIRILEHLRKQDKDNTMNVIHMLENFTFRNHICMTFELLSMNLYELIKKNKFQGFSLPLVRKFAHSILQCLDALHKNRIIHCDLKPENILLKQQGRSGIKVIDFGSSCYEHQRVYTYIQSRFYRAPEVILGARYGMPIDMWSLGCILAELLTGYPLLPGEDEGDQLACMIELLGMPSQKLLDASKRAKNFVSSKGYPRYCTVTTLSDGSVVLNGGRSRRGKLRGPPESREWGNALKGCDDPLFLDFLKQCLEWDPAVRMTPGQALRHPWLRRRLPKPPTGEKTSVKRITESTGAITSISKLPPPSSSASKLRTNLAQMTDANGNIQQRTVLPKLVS
Nature of the test: Selectivity interaction (KinomeScan (DiscoverX)) EUB0000092b DYRK2. As to conditions: at 10 µM.

For test [4], the target named is cGMP-inhibited 3',5'-cyclic phosphodiesterase 3A (Homo sapiens, UniProt Q14432). The test is described as follows: Selectivity interaction (Eurofins safety panel) EUB0001564a PDE3A. As to conditions: at 10 µM.
Test [5] concerns the target T2, G protein-coupled receptor kinase 3 (Homo sapiens) (UniProt P35626).
T2 sequence (whole entry): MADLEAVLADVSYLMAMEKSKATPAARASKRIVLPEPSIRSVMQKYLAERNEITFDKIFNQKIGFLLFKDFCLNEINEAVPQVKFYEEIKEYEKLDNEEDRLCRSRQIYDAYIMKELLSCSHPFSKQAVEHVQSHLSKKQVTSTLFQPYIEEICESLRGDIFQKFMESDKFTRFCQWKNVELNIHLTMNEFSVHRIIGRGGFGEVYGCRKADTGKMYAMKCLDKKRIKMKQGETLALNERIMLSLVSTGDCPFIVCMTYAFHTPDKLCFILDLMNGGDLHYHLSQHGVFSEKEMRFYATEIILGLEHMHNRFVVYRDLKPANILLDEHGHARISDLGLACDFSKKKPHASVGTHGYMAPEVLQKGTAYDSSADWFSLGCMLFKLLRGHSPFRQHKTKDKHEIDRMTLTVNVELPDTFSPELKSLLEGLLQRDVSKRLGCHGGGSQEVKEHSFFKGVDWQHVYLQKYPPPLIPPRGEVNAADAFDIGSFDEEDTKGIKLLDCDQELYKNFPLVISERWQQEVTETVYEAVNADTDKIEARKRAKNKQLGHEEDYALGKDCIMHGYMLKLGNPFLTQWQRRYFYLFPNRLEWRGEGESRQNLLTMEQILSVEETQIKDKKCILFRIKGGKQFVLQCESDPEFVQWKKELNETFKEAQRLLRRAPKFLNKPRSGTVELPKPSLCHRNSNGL
Nature of the test: Selectivity interaction (KinomeScan (DiscoverX)) EUB0000695a ADRBK2. The settings on record: at 100 nM.

Test [6] deals with Mitogen-activated protein kinase kinase kinase kinase 1 (Homo sapiens) (UniProt Q92918). Nature of the test: Selectivity interaction (ActivX KiNativ screen (kinase selectivity in THP-1 cell lysates)) EUB0000639a MAP4K1. It counts as subcellular. As to conditions: lysate, at 0.04 µM.
Mitogen-activated protein kinase kinase kinase kinase 1 (Homo sapiens), sequence (Q92918 whole entry, looked up): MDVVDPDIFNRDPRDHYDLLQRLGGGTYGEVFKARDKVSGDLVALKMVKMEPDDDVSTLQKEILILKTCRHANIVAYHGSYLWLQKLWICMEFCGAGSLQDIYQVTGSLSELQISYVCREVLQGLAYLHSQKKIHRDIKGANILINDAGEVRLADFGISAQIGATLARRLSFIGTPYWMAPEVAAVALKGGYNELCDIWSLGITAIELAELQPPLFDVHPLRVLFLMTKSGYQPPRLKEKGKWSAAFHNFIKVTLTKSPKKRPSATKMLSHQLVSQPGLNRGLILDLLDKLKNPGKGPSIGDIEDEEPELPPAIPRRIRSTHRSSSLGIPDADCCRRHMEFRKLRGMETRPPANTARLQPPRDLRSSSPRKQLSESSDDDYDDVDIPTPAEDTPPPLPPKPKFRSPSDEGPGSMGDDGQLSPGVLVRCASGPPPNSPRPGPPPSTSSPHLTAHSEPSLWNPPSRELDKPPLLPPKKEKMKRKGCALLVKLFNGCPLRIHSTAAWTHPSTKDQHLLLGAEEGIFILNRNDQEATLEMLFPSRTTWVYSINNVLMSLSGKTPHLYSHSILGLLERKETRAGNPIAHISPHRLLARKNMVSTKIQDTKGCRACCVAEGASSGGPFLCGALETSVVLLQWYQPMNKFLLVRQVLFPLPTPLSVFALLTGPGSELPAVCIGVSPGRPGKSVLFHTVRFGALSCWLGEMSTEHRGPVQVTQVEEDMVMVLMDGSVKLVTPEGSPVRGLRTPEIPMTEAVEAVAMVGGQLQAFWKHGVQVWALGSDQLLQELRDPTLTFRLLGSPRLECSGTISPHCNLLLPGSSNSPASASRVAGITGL
The target of test [7] is MAP kinase-activated protein kinase 2 (Homo sapiens, UniProt P49137).
MAP kinase-activated protein kinase 2, sequence (P49137 whole entry): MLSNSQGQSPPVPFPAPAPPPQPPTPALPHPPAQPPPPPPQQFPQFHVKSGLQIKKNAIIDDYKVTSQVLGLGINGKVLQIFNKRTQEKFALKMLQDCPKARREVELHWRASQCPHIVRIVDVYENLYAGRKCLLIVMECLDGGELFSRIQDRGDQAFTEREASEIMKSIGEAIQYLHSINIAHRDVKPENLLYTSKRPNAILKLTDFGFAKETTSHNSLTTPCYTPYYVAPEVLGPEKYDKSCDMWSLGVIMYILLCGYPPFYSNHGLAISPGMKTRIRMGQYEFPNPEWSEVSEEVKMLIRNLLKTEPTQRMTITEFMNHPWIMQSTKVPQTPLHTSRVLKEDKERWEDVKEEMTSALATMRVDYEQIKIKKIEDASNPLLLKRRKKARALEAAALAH
Test [8] addresses Serine/threonine-protein kinase Nek6 (Homo sapiens) (UniProt Q9HC98). Nature of the test: Selectivity interaction (KinomeScan (DiscoverX)) EUB0000229b NEK6. The settings on record: at 10 µM.
For test [9], the target named is T3, Serine/threonine-protein kinase D3 (Homo sapiens) (UniProt O94806).
T3 sequence (whole entry): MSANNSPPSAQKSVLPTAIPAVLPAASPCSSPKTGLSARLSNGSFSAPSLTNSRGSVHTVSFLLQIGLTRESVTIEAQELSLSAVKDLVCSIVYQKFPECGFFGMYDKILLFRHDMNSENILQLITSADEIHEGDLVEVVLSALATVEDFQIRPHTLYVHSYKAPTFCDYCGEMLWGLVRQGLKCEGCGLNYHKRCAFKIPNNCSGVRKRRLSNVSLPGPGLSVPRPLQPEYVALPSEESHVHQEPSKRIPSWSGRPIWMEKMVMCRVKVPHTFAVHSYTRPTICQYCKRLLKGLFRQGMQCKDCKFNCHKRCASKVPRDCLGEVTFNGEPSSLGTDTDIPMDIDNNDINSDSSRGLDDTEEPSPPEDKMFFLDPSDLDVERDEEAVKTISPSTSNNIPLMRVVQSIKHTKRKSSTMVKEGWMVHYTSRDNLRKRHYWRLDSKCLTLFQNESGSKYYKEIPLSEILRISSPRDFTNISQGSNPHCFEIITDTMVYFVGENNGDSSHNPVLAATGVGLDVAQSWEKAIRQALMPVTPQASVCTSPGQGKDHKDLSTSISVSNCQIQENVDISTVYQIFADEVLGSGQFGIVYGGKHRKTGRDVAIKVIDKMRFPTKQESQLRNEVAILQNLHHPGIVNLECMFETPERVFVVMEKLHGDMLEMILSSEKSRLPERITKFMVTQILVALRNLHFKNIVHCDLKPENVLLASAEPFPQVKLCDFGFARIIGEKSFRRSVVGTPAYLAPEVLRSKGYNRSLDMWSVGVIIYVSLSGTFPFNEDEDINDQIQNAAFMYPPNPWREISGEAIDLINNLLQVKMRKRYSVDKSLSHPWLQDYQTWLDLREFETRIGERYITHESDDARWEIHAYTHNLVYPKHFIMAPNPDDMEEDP
The test is described as follows: Selectivity interaction (KinomeScan (DiscoverX)) EUB0000595a PRKD3. The settings on record: at 10 µM.

Test [10] has as its target Receptor-type tyrosine-protein kinase FLT3 (Homo sapiens) (UniProt P36888). The test is described as follows: Selectivity interaction (KinomeScan (DiscoverX)) EUB0001619a FLT3. As to conditions: at 1 µM.
The target in test [11] is Protein kinase C delta type (Homo sapiens) (UniProt Q05655). The test is described as follows: Selectivity interaction (KinomeScan (DiscoverX)) EUB0000618a PRKCD. As to conditions: at 10 µM.
Protein kinase C delta type (Homo sapiens), sequence (Q05655 whole entry, looked up): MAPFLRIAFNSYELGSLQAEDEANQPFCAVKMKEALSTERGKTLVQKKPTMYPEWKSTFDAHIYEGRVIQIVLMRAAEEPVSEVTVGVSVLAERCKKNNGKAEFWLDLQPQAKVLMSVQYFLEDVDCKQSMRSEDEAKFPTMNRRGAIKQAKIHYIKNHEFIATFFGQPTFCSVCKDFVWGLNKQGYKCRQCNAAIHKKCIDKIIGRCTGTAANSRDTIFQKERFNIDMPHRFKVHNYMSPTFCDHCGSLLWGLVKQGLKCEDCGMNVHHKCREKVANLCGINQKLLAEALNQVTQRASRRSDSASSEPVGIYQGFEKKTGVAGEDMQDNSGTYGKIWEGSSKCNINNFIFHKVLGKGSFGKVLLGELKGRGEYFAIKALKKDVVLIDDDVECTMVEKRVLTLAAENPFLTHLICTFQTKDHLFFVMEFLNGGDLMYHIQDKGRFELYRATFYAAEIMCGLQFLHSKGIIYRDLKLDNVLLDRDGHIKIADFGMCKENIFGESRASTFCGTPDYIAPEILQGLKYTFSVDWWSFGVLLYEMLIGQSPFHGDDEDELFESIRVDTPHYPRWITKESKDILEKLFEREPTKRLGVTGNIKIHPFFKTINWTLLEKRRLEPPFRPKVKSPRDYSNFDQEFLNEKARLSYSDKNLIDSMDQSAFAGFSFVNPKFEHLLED

G protein-coupled receptor kinase 5, sequence (P34947 whole entry, looked up): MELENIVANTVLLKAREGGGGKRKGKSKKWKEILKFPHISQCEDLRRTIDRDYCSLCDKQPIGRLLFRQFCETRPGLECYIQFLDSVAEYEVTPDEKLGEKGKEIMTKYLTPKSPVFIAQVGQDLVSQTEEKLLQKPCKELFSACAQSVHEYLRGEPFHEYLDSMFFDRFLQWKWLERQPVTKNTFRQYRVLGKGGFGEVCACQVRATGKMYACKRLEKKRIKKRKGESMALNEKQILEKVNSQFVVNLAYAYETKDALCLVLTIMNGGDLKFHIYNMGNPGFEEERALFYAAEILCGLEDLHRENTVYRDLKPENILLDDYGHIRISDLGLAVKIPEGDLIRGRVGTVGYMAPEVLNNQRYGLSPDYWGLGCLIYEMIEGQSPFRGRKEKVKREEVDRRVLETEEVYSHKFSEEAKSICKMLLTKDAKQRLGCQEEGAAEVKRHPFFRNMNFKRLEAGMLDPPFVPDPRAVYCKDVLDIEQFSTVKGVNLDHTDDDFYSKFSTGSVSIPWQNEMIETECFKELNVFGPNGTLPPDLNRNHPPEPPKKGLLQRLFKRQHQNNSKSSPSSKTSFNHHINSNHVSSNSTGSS
Serine/threonine-protein kinase Nek6 (Homo sapiens), sequence (Q9HC98 whole entry): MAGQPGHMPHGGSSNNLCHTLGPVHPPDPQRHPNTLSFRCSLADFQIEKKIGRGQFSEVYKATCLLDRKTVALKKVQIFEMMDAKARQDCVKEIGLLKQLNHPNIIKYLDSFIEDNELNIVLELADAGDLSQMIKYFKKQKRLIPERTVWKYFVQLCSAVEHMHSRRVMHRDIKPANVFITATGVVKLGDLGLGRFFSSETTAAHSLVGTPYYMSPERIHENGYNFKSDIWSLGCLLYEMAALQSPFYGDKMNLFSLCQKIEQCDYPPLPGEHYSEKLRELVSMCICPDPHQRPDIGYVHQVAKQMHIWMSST
Receptor-type tyrosine-protein kinase FLT3 (Homo sapiens), sequence (P36888 whole entry): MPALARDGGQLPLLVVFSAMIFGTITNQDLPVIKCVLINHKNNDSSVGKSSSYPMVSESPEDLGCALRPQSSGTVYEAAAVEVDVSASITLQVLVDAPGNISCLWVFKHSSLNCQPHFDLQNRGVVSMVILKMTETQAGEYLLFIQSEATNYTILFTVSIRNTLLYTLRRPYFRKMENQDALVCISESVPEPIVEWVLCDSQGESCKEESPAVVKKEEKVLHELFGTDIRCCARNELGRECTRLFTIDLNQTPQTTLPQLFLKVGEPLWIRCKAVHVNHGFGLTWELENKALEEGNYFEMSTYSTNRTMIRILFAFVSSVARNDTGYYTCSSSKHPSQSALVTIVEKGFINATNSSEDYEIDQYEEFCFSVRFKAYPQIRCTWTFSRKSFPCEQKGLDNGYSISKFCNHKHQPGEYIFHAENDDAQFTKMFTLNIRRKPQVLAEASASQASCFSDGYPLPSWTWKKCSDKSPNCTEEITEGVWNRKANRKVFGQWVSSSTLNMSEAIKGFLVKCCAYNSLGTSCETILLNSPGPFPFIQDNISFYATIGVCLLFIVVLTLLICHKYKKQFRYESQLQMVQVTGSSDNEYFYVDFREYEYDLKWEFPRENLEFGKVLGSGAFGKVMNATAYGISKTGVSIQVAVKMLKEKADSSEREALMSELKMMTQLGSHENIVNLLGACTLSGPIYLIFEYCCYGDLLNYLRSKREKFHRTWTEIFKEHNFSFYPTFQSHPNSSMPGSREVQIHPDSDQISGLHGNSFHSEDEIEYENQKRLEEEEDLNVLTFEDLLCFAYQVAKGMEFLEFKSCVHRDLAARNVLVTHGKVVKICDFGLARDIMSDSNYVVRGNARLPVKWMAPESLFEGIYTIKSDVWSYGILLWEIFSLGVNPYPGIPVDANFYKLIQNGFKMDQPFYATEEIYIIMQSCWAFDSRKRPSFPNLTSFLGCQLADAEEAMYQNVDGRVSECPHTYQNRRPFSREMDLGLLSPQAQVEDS
Ribosomal protein S6 kinase alpha-3, sequence (P51812 whole entry): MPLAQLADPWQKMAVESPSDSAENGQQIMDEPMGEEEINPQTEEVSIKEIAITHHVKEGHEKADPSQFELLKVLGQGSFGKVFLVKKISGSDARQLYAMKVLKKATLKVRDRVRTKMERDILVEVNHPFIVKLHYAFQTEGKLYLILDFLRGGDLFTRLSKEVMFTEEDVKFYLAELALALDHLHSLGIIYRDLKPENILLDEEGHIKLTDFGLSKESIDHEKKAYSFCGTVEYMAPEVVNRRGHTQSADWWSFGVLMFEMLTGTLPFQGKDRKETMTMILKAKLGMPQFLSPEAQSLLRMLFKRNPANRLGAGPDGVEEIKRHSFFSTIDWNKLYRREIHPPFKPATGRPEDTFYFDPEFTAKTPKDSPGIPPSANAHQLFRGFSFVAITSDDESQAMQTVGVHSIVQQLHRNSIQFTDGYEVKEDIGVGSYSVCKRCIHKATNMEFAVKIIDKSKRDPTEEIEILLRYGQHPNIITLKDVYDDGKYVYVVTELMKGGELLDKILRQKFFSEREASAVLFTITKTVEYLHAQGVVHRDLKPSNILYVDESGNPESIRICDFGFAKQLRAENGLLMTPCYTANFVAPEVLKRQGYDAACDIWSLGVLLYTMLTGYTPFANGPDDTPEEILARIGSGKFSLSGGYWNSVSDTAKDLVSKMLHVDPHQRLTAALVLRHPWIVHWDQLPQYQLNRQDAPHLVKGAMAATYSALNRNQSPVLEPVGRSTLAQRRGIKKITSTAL

Consider `C=CC(=O)Nc1cccc(C(=O)Nc2ccc(Nc3cc(-c4[nH]c(SC)nc4C)ccn3)cc2)c1`, for which the % of control was 97% in [1] (at 1 µM) and 94% in test [1] (at 5 µM).

Regarding `CCN(CC)CCCCNc1ncc2cc(-c3cc(OC)cc(OC)c3)c(NC(=O)NC(C)(C)C)nc2n1`, the % of control in test [2] amounted to 100%.

`CCC(=O)N1CCN(c2ccc(-n3c(=O)ccc4cnc5ccc(-c6cnc7ccccc7c6)cc5c43)cc2C(F)(F)F)CC1` gave a % of control in test [3] of 86%.

For `CC[C@@H](Nc1c(C#N)c(-c2ccc(-c3cccc(C)c3F)cc2)nc2cnccc12)C(=O)O` [BAY-091], the % of inhibition in test [4] worked out at 74%.

On to `Cc1cc(F)c(C(=O)Nc2cccc(-c3nncn3C(C)C)n2)cc1-n1cnc(C2CC2)c1`, for which, in test [5], the % of control stood at 91%.

As to `CC[C@@H]1[C@H](F)C(=O)N[C@@H]1COc1nccc2cc(C(N)=O)c(OC)cc12` [ZIMLOVISERTIB], the % of inhibition in test [6] is -4.8%.

In general, IC50 refers to the concentration needed to halve the response being measured. Take `CCc1cccc(CC)c1NC(=O)c1nn(C)c2c1CCc1cnc(Nc3ccc(C(=O)NC4CCN(C)CC4)cc3OC(F)(F)F)nc1-2`: the IC50 in [7] is > 10 µM.

Turning to `COc1cc(N(C)c2ccnc3ccc(C(F)(F)F)cc23)cc(OC)c1OC`, the % binding in test [8] was determined as 100%.

In test [9], `COCC(=O)NC/C=C/c1ccc2ncnc(Nc3ccc(Oc4ccc(C)nc4)c(C)c3)c2c1` [CP-724714] had a % of control of 83%.

`N#Cc1cccc(-c2c[nH]c3ncnc(N4CCOCC4)c23)c1` yielded a % of control in [10] of 92%.

Consider `O[C@H]1CC[C@H](Nc2ncc3nc(Nc4c(F)cc(F)cc4F)n([C@H]4CCOC4)c3n2)CC1`, for which, in test [11], the % of control amounted to 93%.
